Laboratory results published in paper PMC7403980, “Anti-Inflammatory Effects of the Novel PIM Kinase Inhibitor KMU-470 in RAW 264.7 Cells through the TLR4-NF-κB-NLRP3 Pathway” (International Journal of Molecular Sciences, 2020).

Legend:
Lyn (h) = target: T1, Lyn (h) (Homo sapiens, UniProt P07948); assay: Kinase profiling (Eurofins Cerep); assay type: biochemical; settings: ATP at Km
T1 construct: purchased Eurofins Cerep S.A. (kinase profiler service)
Experimental: (§1) To test the specificity of the novel PIM kinase inhibitor KMU-470, a kinase profiler service was conducted by Eurofins Cerep S.A. The screening was performed with 1 and 10 μM of compound and a concentration of ATP at the Km value for each individual kinase and kinase substrate according to Eurofin’s protocols.

MAPK1 (h) = target: T2, MAPK1 (h) (Homo sapiens, UniProt P27361); assay: Kinase profiling (Eurofins Cerep); assay type: biochemical; settings: ATP at Km
T2 construct: purchased Eurofins Cerep S.A. (kinase profiler service)
Experimental: as §1

Tec (h) activated = target: T3, Tec (h) activated (Homo sapiens, UniProt P42680); assay: Kinase profiling (Eurofins Cerep); assay type: biochemical; settings: KMU-470 10 μM; ATP at Km
T3 construct: purchased Eurofins Cerep S.A. (kinase profiler service)
Experimental: as §1

Txk (h) = target: T4, Txk (h) (Homo sapiens, UniProt P42681); assay: Kinase profiling (Eurofins Cerep); assay type: biochemical; settings: KMU-470 10 μM; ATP at Km
T4 construct: purchased Eurofins Cerep S.A. (kinase profiler service)
Experimental: as §1

SAPK2a (h) = target: T5, SAPK2a (h) (Homo sapiens, UniProt Q16539); assay: Kinase profiling (Eurofins Cerep); assay type: biochemical; settings: KMU-470 10 μM; ATP at Km
T5 construct: purchased Eurofins Cerep S.A. (kinase profiler service)
Experimental: as §1

TYK2 (h) = target: T6, TYK2 (h) (Homo sapiens, UniProt P29597); assay: Kinase profiling (Eurofins Cerep); assay type: biochemical; settings: ATP at Km
T6 construct: purchased Eurofins Cerep S.A. (kinase profiler service)
Experimental: as §1

Itk (h) = target: T7, Itk (h) (Homo sapiens, UniProt Q08881); assay: Kinase profiling (Eurofins Cerep); assay type: biochemical; settings: ATP at Km
T7 construct: purchased Eurofins Cerep S.A. (kinase profiler service)
Experimental: as §1

JNK1α1 (h) = target: T8, JNK1α1 (h) (Homo sapiens, UniProt P45983); assay: Kinase profiling (Eurofins Cerep); assay type: biochemical; settings: KMU-470 10 μM; ATP at Km
T8 construct: purchased Eurofins Cerep S.A. (kinase profiler service)
Experimental: as §1

Lck (h) = target: T9, Lck (h) (Homo sapiens, UniProt P06239); assay: Kinase profiling (Eurofins Cerep); assay type: biochemical; settings: ATP at Km
T9 construct: purchased Eurofins Cerep S.A. (kinase profiler service)
Experimental: as §1

JAK2 (h) = target: T10, JAK2 (h) (Homo sapiens, UniProt O60674); assay: Kinase profiling (Eurofins Cerep); assay type: biochemical; settings: ATP at Km
T10 construct: purchased Eurofins Cerep S.A. (kinase profiler service)
Experimental: as §1

Syk (h) = target: T11, Syk (h) (Homo sapiens, UniProt P43405); assay: Kinase profiling (Eurofins Cerep); assay type: biochemical; settings: ATP at Km
T11 construct: purchased Eurofins Cerep S.A. (kinase profiler service)
Experimental: as §1

BTK (h) = target: T12, BTK (h) (Homo sapiens, UniProt Q06187); assay: Kinase profiling (Eurofins Cerep); assay type: biochemical; settings: KMU-470 10 μM; ATP at Km
T12 construct: purchased Eurofins Cerep S.A. (kinase profiler service)
Experimental: as §1

Pyk2 (h) = target: T13, Pyk2 (h) (Homo sapiens, UniProt Q14289); assay: Kinase profiling (Eurofins Cerep); assay type: biochemical; settings: KMU-470 10 μM; ATP at Km
T13 construct: purchased Eurofins Cerep S.A. (kinase profiler service)
Experimental: as §1

Fyn (h) = target: T14, Fyn (h) (Homo sapiens, UniProt P06241); assay: Kinase profiling (Eurofins Cerep); assay type: biochemical; settings: ATP at Km
T14 construct: purchased Eurofins Cerep S.A. (kinase profiler service)
Experimental: as §1

Fgr (h) = target: T15, Fgr (h) (Homo sapiens, UniProt P09769); assay: Kinase profiling (Eurofins Cerep); assay type: biochemical; settings: ATP at Km
T15 construct: purchased Eurofins Cerep S.A. (kinase profiler service)
Experimental: as §1

Bmx (h) = target: T16, Bmx (h) (Homo sapiens, UniProt P51813); assay: Kinase profiling (Eurofins Cerep); assay type: biochemical; settings: KMU-470 10 μM; ATP at Km
T16 construct: purchased Eurofins Cerep S.A. (kinase profiler service)
Experimental: as §1

JAK3 (h) = target: T17, JAK3 (h) (Homo sapiens, UniProt P52333); assay: Kinase profiling (Eurofins Cerep); assay type: biochemical; settings: ATP at Km
T17 construct: purchased Eurofins Cerep S.A. (kinase profiler service)
Experimental: as §1

Hck (h) = target: T18, Hck (h) (Homo sapiens, UniProt P08631); assay: Kinase profiling (Eurofins Cerep); assay type: biochemical; settings: KMU-470 10 μM; ATP at Km
T18 construct: purchased Eurofins Cerep S.A. (kinase profiler service)
Experimental: as §1

Yes (h) = target: T19, Yes (h) (Homo sapiens, UniProt P07947); assay: Kinase profiling (Eurofins Cerep); assay type: biochemical; settings: ATP at Km
T19 construct: purchased Eurofins Cerep S.A. (kinase profiler service)
Experimental: as §1

Blk (h) = target: T20, Blk (h) (Homo sapiens, UniProt P51451); assay: Kinase profiling (Eurofins Cerep); assay type: biochemical; settings: ATP at Km
T20 construct: purchased Eurofins Cerep S.A. (kinase profiler service)
Experimental: as §1

ZAP-70 (h) = target: T21, ZAP-70 (h) (Homo sapiens, UniProt P43403); assay: Kinase profiling (Eurofins Cerep); assay type: biochemical; settings: KMU-470 10 μM; ATP at Km
T21 construct: purchased Eurofins Cerep S.A. (kinase profiler service)
Experimental: as §1

JAK1 (h) = target: T22, JAK1 (h) (Homo sapiens, UniProt P23458); assay: Kinase profiling (Eurofins Cerep); assay type: biochemical; settings: ATP at Km
T22 construct: purchased Eurofins Cerep S.A. (kinase profiler service)
Experimental: as §1

Csrc (h) = target: T23, Csrc (h) (Homo sapiens, UniProt P12931); assay: Kinase profiling (Eurofins Cerep); assay type: biochemical; settings: KMU-470 10 μM; ATP at Km
T23 construct: purchased Eurofins Cerep S.A. (kinase profiler service)
Experimental: as §1

NO production = assay: LPS-induced NO production in RAW 264.7 cells (Griess reagent); assay type: cell-based, murine; settings: KMU-470 1 μM 30 min pre-treatment, LPS 50, 200, 1000 ng/mL 24 h
Experimental: Figure 3 Inhibitory effect of KMU-470 on LPS-induced NO production and iNOS protein expression, and cell viability in RAW 264.7 cells. (A) The cells were pre-treated with KMU-470 at a concentration of 1 μM for 30 min and then treated with different concentrations of LPS for 24 h. Nitrite in the culture supernatant was collected and evaluated using Griess reagent. Absorbance was measured at 540 nm. *** p < 0.001, ** p < 0.01, * p < 0.05. (B) Cells are pre-treated with two different concentrations of KMU-470 (0.5 μM and 1 μM) for 30 min, followed by treatment with 1 μg/mL LPS for 24 h. β-actin was used as an internal control for Western blot analysis. (C) Image-J program was used to analyze the relative optical density of the iNOS band. (D) Cells were treated with various concentrations of KMU-470 for 24 h. The effects of KMU-470 on cell proliferation and morphological changes were observed by microscopy (X100). (E) The cell proliferation rate was determined by cell count using a trypan blue exclusion assay. *p < 0.05 (F) Effect of KMU-470 on cell viability was measured by XTT assay. *** p < 0.001.
The amount of nitrite accumulated in the cell culture medium was measured directly using a Griess reagent as an indicator of NO production. […] The OD was measured by spectrophotometer (BMG Labtech, Ortenberg, Germany) at 540 nm. […]

T20 sequence (P51451 whole entry): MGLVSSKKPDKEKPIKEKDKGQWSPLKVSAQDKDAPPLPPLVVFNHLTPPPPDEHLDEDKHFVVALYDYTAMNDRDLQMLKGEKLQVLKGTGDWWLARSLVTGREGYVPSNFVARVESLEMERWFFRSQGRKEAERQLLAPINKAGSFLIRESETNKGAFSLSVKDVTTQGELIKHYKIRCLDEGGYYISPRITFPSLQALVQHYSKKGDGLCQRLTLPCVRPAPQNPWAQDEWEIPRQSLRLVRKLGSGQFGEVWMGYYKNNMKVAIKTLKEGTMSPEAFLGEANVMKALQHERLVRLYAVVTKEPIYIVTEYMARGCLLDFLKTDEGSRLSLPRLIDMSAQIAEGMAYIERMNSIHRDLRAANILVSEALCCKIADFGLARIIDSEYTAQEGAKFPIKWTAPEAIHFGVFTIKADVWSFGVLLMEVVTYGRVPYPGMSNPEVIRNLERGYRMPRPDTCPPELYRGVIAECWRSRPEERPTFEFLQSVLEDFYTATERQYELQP
T22 sequence (P23458 whole entry): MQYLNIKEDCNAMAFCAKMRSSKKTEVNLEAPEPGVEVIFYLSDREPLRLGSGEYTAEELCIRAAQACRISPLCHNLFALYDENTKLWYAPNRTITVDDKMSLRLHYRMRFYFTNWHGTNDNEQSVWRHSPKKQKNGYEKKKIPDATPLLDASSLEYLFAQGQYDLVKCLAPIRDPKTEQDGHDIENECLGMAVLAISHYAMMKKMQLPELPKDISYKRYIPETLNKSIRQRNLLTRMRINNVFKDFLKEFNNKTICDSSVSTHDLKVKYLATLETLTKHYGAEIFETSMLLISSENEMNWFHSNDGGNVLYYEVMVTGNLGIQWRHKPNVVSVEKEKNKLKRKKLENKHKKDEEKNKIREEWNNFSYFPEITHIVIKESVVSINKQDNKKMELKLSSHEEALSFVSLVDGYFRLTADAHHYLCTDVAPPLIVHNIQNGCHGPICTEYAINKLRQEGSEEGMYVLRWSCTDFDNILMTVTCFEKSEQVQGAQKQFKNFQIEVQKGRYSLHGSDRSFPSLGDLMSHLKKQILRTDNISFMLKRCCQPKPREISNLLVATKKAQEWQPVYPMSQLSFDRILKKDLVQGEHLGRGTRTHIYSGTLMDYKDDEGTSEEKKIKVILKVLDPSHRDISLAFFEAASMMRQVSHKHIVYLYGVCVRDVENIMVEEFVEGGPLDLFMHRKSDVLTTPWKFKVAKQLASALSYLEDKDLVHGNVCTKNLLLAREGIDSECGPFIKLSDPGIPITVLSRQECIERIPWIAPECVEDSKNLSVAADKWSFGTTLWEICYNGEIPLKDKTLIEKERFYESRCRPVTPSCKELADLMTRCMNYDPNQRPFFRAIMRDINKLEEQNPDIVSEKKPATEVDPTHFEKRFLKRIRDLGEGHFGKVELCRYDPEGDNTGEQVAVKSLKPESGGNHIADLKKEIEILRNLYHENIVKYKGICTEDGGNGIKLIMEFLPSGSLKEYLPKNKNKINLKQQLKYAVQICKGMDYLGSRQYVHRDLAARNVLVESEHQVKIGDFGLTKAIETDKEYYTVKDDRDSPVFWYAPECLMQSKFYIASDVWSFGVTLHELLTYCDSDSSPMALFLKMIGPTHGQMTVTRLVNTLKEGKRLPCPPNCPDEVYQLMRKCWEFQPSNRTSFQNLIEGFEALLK
T2 sequence (P27361 2-379 limits assumed): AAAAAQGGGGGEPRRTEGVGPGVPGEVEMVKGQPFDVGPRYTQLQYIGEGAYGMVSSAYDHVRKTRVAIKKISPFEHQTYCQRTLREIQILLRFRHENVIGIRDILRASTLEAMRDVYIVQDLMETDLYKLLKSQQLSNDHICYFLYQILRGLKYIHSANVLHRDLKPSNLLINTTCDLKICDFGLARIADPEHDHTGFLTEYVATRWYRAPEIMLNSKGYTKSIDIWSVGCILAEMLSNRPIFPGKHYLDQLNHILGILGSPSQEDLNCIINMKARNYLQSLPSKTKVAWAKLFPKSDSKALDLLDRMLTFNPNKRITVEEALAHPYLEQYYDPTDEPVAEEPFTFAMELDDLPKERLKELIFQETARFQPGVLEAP
T6 sequence (P29597 whole entry): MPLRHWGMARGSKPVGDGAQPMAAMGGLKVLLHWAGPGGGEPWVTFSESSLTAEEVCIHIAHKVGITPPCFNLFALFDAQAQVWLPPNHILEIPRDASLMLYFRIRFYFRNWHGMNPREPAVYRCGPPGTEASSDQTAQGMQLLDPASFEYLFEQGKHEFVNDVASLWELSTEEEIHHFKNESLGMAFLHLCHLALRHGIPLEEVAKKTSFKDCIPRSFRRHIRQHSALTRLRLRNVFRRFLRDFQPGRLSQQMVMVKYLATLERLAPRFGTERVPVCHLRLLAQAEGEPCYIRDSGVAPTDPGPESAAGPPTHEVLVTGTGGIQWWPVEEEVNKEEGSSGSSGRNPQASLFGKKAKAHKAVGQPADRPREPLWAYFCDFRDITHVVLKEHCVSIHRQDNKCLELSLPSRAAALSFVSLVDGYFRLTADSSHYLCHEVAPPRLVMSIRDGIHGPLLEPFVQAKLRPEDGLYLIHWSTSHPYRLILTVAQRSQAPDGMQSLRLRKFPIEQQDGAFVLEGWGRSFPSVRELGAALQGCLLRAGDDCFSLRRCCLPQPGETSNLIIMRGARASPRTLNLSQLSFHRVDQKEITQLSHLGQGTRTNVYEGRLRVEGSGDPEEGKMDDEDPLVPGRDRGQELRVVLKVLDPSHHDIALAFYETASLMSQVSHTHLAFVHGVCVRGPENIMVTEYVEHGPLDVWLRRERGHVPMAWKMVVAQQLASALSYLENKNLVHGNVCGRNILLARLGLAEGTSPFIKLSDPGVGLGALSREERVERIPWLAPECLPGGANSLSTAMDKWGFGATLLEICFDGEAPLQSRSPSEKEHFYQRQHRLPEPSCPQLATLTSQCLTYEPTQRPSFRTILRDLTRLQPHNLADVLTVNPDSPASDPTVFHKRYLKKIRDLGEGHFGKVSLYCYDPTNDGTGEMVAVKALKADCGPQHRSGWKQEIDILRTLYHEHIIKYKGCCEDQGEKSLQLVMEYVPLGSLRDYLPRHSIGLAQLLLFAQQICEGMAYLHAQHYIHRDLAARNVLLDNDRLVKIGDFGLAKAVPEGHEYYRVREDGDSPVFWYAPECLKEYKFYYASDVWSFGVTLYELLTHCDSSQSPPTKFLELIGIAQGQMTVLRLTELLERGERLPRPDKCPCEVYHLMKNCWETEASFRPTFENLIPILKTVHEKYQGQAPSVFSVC
T9 sequence (P06239 whole entry): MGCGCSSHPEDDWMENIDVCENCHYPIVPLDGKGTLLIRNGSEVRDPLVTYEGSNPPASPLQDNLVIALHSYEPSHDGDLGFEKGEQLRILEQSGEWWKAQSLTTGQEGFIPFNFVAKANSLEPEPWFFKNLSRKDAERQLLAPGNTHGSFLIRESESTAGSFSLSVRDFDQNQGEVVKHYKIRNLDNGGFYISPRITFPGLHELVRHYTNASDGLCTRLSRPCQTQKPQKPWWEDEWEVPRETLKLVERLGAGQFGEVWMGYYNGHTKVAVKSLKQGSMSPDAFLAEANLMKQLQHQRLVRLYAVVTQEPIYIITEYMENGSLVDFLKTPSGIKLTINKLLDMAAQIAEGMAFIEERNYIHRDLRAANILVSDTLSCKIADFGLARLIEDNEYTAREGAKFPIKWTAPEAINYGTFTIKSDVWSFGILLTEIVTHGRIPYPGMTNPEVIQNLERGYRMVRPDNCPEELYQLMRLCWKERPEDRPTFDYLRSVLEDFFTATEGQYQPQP
T15 sequence (P09769 whole entry): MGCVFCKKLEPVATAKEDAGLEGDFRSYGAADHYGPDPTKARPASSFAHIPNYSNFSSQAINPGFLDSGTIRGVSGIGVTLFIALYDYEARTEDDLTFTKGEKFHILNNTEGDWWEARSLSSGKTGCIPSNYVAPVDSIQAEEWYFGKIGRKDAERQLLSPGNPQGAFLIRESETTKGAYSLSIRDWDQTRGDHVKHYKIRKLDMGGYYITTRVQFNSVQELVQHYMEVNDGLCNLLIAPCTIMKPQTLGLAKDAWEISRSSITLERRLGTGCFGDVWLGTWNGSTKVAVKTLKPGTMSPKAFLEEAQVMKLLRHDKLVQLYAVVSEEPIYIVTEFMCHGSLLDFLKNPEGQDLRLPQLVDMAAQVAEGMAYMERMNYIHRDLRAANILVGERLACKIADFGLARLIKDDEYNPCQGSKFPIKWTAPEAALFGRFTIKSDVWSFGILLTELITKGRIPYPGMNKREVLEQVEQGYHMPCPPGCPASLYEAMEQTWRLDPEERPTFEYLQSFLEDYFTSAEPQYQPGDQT
T14 sequence (P06241 whole entry): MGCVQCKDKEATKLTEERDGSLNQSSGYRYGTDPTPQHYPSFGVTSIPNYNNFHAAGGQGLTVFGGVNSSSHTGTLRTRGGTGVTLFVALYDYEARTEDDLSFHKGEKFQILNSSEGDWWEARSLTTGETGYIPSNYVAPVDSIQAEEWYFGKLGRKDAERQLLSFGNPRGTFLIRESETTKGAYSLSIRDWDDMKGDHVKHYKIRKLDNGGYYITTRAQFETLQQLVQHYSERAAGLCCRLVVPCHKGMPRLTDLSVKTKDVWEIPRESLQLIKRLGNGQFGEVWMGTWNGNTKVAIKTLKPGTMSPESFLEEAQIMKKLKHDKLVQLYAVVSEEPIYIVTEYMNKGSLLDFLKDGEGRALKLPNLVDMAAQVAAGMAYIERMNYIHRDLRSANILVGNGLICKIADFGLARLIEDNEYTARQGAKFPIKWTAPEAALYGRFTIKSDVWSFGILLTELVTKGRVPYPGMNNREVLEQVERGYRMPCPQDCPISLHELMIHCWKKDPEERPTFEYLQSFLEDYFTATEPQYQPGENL

**Q.** `CN(C)CCNc1cncc(-c2ccc3c(c2)/C(=C/c2cnc[nH]2)C(=O)N3)n1` [KMU-470, (Z)-3-((1H-Imidazol-5-yl)methylene)-5-(6-((2-(dimethylamino)ethyl)amino)pyrazin-2-yl)indolin-2-one] was tested. Which “Activity (% Control) Lyn (h)” value (Lyn (h); KMU-470 1 μM) did it give?
**A.** 30 % Control

**Q.** And the “Activity (% Control) Lyn (h)” value (Lyn (h); KMU-470 10 μM)?
**A.** 10 % Control

**Q.** And the “Activity (% Control) MAPK1 (h)” value (MAPK1 (h); KMU-470 1 μM)?
**A.** 6 % Control

**Q.** What about the “Activity (% Control) MAPK1 (h)” value (MAPK1 (h); KMU-470 10 μM) of the same molecule?
**A.** −18 % Control

**Q.** And the “Activity (% Control) Tec (h) activated” value (Tec (h) activated)?
**A.** 71 % Control

**Q.** And the “Activity (% Control) Txk (h)” value (Txk (h))?
**A.** 50 % Control

**Q.** What about the “Activity (% Control) SAPK2a (h)” value (SAPK2a (h)) of the same molecule?
**A.** 77 % Control

**Q.** And the “Activity (% Control) TYK2 (h)” value (TYK2 (h); KMU-470 1 μM)?
**A.** 54 % Control

**Q.** And the “Activity (% Control) TYK2 (h)” value (TYK2 (h); KMU-470 10 μM)?
**A.** 14 % Control

**Q.** What about the “Activity (% Control) Itk (h)” value (Itk (h); KMU-470 1 μM) of the same molecule?
**A.** 75 % Control

**Q.** And the “Activity (% Control) Itk (h)” value (Itk (h); KMU-470 10 μM)?
**A.** 21 % Control

**Q.** And the “Activity (% Control) JNK1α1 (h)” value (JNK1α1 (h))?
**A.** 34 % Control

**Q.** What about the “Activity (% Control) Lck (h)” value (Lck (h); KMU-470 1 μM) of the same molecule?
**A.** 41 % Control

**Q.** And the “Activity (% Control) Lck (h)” value (Lck (h); KMU-470 10 μM)?
**A.** 14 % Control

**Q.** And the “Activity (% Control) JAK2 (h)” value (JAK2 (h); KMU-470 1 μM)?
**A.** 107 % Control

**Q.** And the “Activity (% Control) JAK2 (h)” value (JAK2 (h); KMU-470 10 μM)?
**A.** 23 % Control

**Q.** And the “Activity (% Control) Syk (h)” value (Syk (h); KMU-470 1 μM)?
**A.** 82 % Control

**Q.** What about the “Activity (% Control) Syk (h)” value (Syk (h); KMU-470 10 μM) of the same molecule?
**A.** 21 % Control

**Q.** And the “Activity (% Control) BTK (h)” value (BTK (h))?
**A.** 80 % Control

**Q.** And the “Activity (% Control) Pyk2 (h)” value (Pyk2 (h))?
**A.** 41 % Control

**Q.** And the “Activity (% Control) Fyn (h)” value (Fyn (h); KMU-470 1 μM)?
**A.** 97 % Control

**Q.** What about the “Activity (% Control) Fyn (h)” value (Fyn (h); KMU-470 10 μM) of the same molecule?
**A.** 16 % Control

**Q.** What about the “Activity (% Control) Fgr (h)” value (Fgr (h); KMU-470 1 μM) of the same molecule?
**A.** 42 % Control

**Q.** And the “Activity (% Control) Fgr (h)” value (Fgr (h); KMU-470 10 μM)?
**A.** 8 % Control

**Q.** What about the “Activity (% Control) Bmx (h)” value (Bmx (h)) of the same molecule?
**A.** 47 % Control

**Q.** And the “Activity (% Control) JAK3 (h)” value (JAK3 (h); KMU-470 1 μM)?
**A.** 38 % Control

**Q.** What about the “Activity (% Control) JAK3 (h)” value (JAK3 (h); KMU-470 10 μM) of the same molecule?
**A.** 15 % Control

**Q.** And the “Activity (% Control) Hck (h)” value (Hck (h))?
**A.** 37 % Control

**Q.** What about the “Activity (% Control) Yes (h)” value (Yes (h); KMU-470 1 μM) of the same molecule?
**A.** 22 % Control

**Q.** What about the “Activity (% Control) Yes (h)” value (Yes (h); KMU-470 10 μM) of the same molecule?
**A.** −3 % Control

**Q.** And the “Activity (% Control) Blk (h)” value (Blk (h); KMU-470 1 μM)?
**A.** 53 % Control

**Q.** And the “Activity (% Control) Blk (h)” value (Blk (h); KMU-470 10 μM)?
**A.** 5 % Control

**Q.** What about the “Activity (% Control) ZAP-70 (h)” value (ZAP-70 (h)) of the same molecule?
**A.** 100 % Control

**Q.** And the “Activity (% Control) JAK1 (h)” value (JAK1 (h); KMU-470 1 μM)?
**A.** 61 % Control

**Q.** And the “Activity (% Control) JAK1 (h)” value (JAK1 (h); KMU-470 10 μM)?
**A.** 20 % Control

**Q.** What about the “Activity (% Control) Csrc (h)” value (Csrc (h)) of the same molecule?
**A.** 43 % Control

**Q.** What about the “LPS-induced NO production” value (NO production) of the same molecule?
**A.** suppressed
